The text below walks through data of US10689357B2, “N-acylethanolamine hydrolyzing acid amidase (NAAA) inhibitors and use thereof” (Northeastern University, priority 2018, dated 2020).

The test deals with hNAAA (Homo sapiens (Human), UniProt Q02083). Put plainly: NAAA fluorescence-based inhibition assay with PAMCA substrate. Type of test: biochemical. The settings on record: purified activated hNAAA, PAMCA 5 μM, pH 4.5, 37° C. From the text:
In order to have an assay method more conducive to high-throughput screening than those published for measuring the NAE hydrolyzing activity of NAAA [Proc. Natl. Acad. Sci. USA. 2009; 106(49):20966-71], the fluorogenic PEA analog N-(4-methyl coumarin)palmitamide (PAMCA), which is hydrolyzed to fluorescent 7-amino-4-methyl coumarin (AMC) and palmitic acid, was developed. [J. Proteome Res. 2012; 11(2):972-981], [PloS One. 2012; 7: e43877]. For three point concentration inhibition assays with hNAAA the following procedure was used. Purified activated NAAA (final concentration of 0.25 μg/mL) was incubated in assay buffer (100 mM citrate-phosphate buffer, pH 4.5, 3 mM DTT, 0.1% Triton X-100, 0.05% BSA, and 150 mM NaCl) made up to a total volume of 180 μL, followed by addition of the compound dissolved in 10 μL DMSO (along with DMSO neat for the control sample) with the final concentrations for each compound of 100, 10, and 1 μM, in triplicate on a 96 well plate. These samples were allowed to incubate for 15 min at room temperature and then 10 μL of a PAMCA stock solution in DMSO (final PAMCA concentration [5 μM]) was added. After 5 minutes of agitation on a shaking plate, the reaction was allowed to proceed at 37° C. for 120 minutes, with fluorescence readings taken every 10 minutes at a wavelength of 460 nm (using an excitation wavelength of 360 nm) on a Synergy HT Plate Reader using Gen5 software from Bio-Tek. The enzyme activity was calculated by converting the relative fluorescence units to AMC formed, using a standard curve of AMC.
For compounds that inhibit hNAAA in range IC50<1 μM, full inhibition curves using eight different concentrations of inhibitor (8 point assay) were generated. The assay procedure used was the same as the three point assay. For ostensibly covalent compounds (as observed by a significant decrease in the slope of a plot of fluorescence vs. time in three point screen), samples were allowed to incubate for 2 hours at 37° C., instead of 15 minutes, before addition of 10 μL of a PAMCA stock solution in DMSO for a final PAMCA concentration of 5 μM. After 5 minutes of agitation on a shaking plate, the reaction was allowed to proceed at 37° C. for 120 minutes. Inhibition constants were calculated using pro Fit software (Quantum Soft, Uetikon am See, Switzerland) and a Levenberg-Marquardt algorithm.

Sequence of hNAAA (Q02083 29-125): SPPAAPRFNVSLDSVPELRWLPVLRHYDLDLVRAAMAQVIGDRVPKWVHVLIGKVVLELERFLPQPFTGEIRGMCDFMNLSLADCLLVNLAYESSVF
Sequence of hNAAA (Q02083 126-359): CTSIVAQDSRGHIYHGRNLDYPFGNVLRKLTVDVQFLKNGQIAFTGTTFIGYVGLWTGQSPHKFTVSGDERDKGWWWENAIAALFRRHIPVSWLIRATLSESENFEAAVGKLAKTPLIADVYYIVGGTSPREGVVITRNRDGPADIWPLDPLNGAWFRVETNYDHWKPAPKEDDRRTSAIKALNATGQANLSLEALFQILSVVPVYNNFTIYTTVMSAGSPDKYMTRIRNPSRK

A word on the IC50: it is the concentration that inhibits the measured activity by half. As for `COc1ccc(/C=C/C(=O)N[C@H]2C[C@@H](N=C=S)C2)cc1` [Example 1, (E)-N-((1s, 3s)-3-Isothiocyanatocyclobutyl)-3-(4-methoxyphenyl)acrylamide], the IC50 is greater than 1000 nM.

Turning to `COc1cccc(-c2ccc(C(=O)N[C@H]3C[C@@H](N=C=S)C3)cc2)c1` [Example 2, N-((1r, 3r)-3-Isothiocyanatocyclobutyl)-3′-methoxy-[1,1′-biphenyl]-4-carboxamide], the 50% inhibitory concentration (IC50) was in the range of 110 to 1000 nM.

As to `COc1cccc(-c2ccc(C(=O)O[C@H]3C[C@@H](N=C=S)C3)cc2)c1` [Example 3, (1r, 3r)-3-Isothiocyanatocyclobutyl 3′-methoxy-[1,1′-biphenyl]-4-carboxylate], the IC50 fell in the range of 10 to 100 nM.

Regarding `COc1ccc(Oc2ccc(C(=O)N[C@H]3C[C@H](N=C=S)C3)cc2)cc1` [Example 4, N-((1r, 3r)-3-Isothiocyanatocyclobutyl)-4-(4-methoxyphenoxy)benzamide], the IC50 was greater than 1000 nM.

Consider `O=C(N[C@H]1C[C@@H](N=C=S)C1)c1ccc(N2CCOCC2)cc1` [Example 5, N-((1r, 3r)-3-Isothiocyanatocyclobutyl)-4-morpholinobenzamide], for which the IC50 was greater than 1000 nM.

For `O=C(N[C@H]1C[C@@H](N=C=S)C1)c1ccc(Oc2cccnc2)cc1` [Example 6, N-((1r, 3r)-3-Isothiocyanatocyclobutyl)-4-(pyridin-3-yloxy)benzamide], the 50% inhibitory concentration (IC50) is 110 to 1000 nM.

In the case of `COc1ccc(-c2ccc(C(=O)N[C@H]3C[C@@H](N=C=S)C3)c(F)c2)cc1` [Example 7, 3-Fluoro-N-((1r, 3r)-3-isothiocyanatocyclobutyl)-4′-methoxy-[1,1′-biphenyl]-4-carboxamide], the half-inhibitory concentration (IC50) is 10 to 100 nM.

For `COc1ccc(-c2ccc(C(=O)O[C@H]3C[C@@H](N=C=S)C3)c(F)c2)cc1` [Example 8, (1r, 3r)-3-Isothiocyanatocyclobutyl 3-fluoro-4′-methoxy-[1,1′-biphenyl]-4-carboxylate], the IC50 is 10 to 100 nM.

For `COc1ccc(-c2ccc(C(=O)N[C@]34C[C@](N=C=S)(C3)C4)c(F)c2)cc1` [Example 9, 3-Fluoro-N-(3-isothiocyanatobicyclo[1.1.1]pentan-1-yl)-4′-methoxy-[1,1′-biphenyl]-4-carboxamide], the concentration for half-maximal inhibition (IC50) was greater than 1000 nM.

In the case of `COc1ccc2cc(C(=O)N[C@H]3C[C@@H](N=C=S)C3)ccc2c1` [Example 10, N-((1s, 3 s)-3-Isothiocyanatocyclobutyl)-6-methoxy-2-naphthamide], the IC50 was greater than 1000 nM.

As to `CC[C@H]1CC[C@H](c2ccc(C(=O)N[C@H]3C[C@@H](N=C=S)C3)cc2)CC1` [Example 11, 4-((1s, 4s)-4-Ethylcyclohexyl)-N-((1r, 3R)-3-isothiocyanatocyclobutyl) benzamide], the half-inhibitory concentration (IC50) was greater than 1000 nM.

With `COc1ccc(CCC(=O)N[C@H]2C[C@@H](N=C=S)C2)cc1` [Example 12, N-((1r, 3r)-3-Isothiocyanatocyclobutyl)-3-(4-methoxyphenyl)propanamide], the concentration for half-maximal inhibition (IC50) lay in the range of 110 to 1000 nM.

Consider `COc1ccc(C#CC(=O)N[C@H]2C[C@@H](N=C=S)C2)cc1` [Example 13, N-((1r, 3r)-3-Isothiocyanatocyclobutyl)-3-(4-methoxyphenyl)propiolamide], for which the IC50 lay in the range of 110 to 1000 nM.

On to `COc1ccc(C2CC2C(=O)N[C@H]2C[C@@H](N=C=S)C2)cc1` (stereo partly shown) [Example 14, N-((1r, 3r)-3-Isothiocyanatocyclobutyl)-2-(4-methoxyphenyl)cyclopropane-1-carboxamide], for which the IC50 was in the range of 10 to 100 nM.

On to `COc1ccc(CCCC(=O)N[C@H]2C[C@@H](N=C=S)C2)cc1` [Example 15, N-((1r, 3r)-3-Isothiocyanatocyclobutyl)-4-(4-methoxyphenyl)butanamide], for which the concentration for half-maximal inhibition (IC50) lay within 10 to 100 nM.

On to `COc1ccc(-c2cc(C(=O)N[C@H]3C[C@@H](N=C=S)C3)on2)cc1` [Example 16, N-((1r, 3r)-3-Isothiocyanatocyclobutyl)-3-(4-methoxyphenyl)isoxazole-5-carboxamide], for which the IC50 was 10 to 100 nM.

Regarding `COc1ccc(N2CCC(C(=O)N[C@H]3C[C@@H](N=C=S)C3)CC2)cc1` [Example 17, N-((1r, 3 r)-3-Isothiocyanatocyclobutyl)-1-(4-methoxyphenyl)piperidine-4-carboxamide], the IC50 was 110 to 1000 nM.

For `COc1ccc(-c2ccc(C(=O)N[C@H]3C[C@@H](N=C=S)C3)nc2)cc1` [Example 18, N-((1s, 3 s)-3-Isothiocyanatocyclobutyl)-5-(4-methoxyphenyl)picolinamide], the IC50 was 10 to 100 nM.

Regarding `COc1ccc(-c2ccc(C(=O)N[C@H]3C[C@@H](N=C=S)C3)nc2)cc1F` [Example 19, 5-(3-Fluoro-4-methoxyphenyl)-N-((1r, 3r)-3-isothiocyanatocyclobutyl) picolinamide], the half-maximal inhibitory concentration (IC50) is 10 to 100 nM.

Consider `COc1cccc(-c2ccc(C(=O)N[C@H]3C[C@@H](N=C=S)C3)nc2)c1` [Example 20, N-((1r, 3r)-3-Isothiocyanatocyclobutyl)-5-(3-methoxyphenyl)picolinamide], for which the IC50 is 110 to 1000 nM.

Turning to `COc1ccc(-c2cnc(C(=O)N[C@H]3C[C@@H](N=C=S)C3)cn2)cc1` [Example 22, N-((1r, 3r)-3-Isothiocyanatocyclobutyl)-5-(4-methoxyphenyl)pyrazine-2-carboxamide], the half-maximal inhibitory concentration (IC50) lay within 110 to 1000 nM.

On to `N#Cc1ccc(-c2ccc(C(=O)N[C@H]3C[C@@H](N=C=S)C3)nc2)cc1` [Example 23, 5-(4-cyanophenyl)-N-((1r, 3r)-3-Isothiocyanatocyclobutyl)picolinamide], for which the IC50 fell in the range of 110 to 1000 nM.

For `COc1ccc(Nc2ccc(C(=O)N[C@H]3C[C@@H](N=C=S)C3)nc2)cc1` [Example 24, N-((1r, 3r)-3-Isothiocyanatocyclobutyl)-5-((4-methoxyphenyl)amino) picolinamide], the IC50 is greater than 1000 nM.

As to `COc1ccc(-c2ccc(S(=O)(=O)N[C@H]3C[C@@H](N=C=S)C3)cc2)cc1` [Example 25, N-((1r, 3r)-3-Isothiocyanatocyclobutyl)-4′-methoxy-[1,1′-biphenyl]-4-sulfonamide], the IC50 was in the range of 10 to 100 nM.

On to `COc1ccc(-c2ccc(S(=O)(=O)N[C@H]3C[C@@H](N=C=S)C3)nc2)cc1` [Example 26, N-((1s, 3s)-3-Isothiocyanatocyclobutyl)-5-(4-methoxyphenyl)pyridine-2-sulfonamide], for which the half-maximal inhibitory concentration (IC50) fell in the range of 10 to 100 nM.

As to `COc1ccc(-c2ccc(S(=O)(=O)O[C@H]3C[C@@H](N=C=S)C3)cc2)cc1` [Example 27, (1s, 3 s)-3-Isothiocyanatocyclobutyl 4′-methoxy-[1,1′-biphenyl]-4-sulfonate], the IC50 lay within 10 to 100 nM.

`COc1ccc(-c2ccc(C(=O)O[C@H]3C[C@@H](N=C=S)C3)c(F)c2)cc1F` [Example 28, (1s,3s)-3-isothiocyanatocyclobutyl 3,3′-difluoro-4′-methoxy-[1,1′-biphenyl]-4-carboxylate]: the IC50 fell in the range of 10 to 100 nM.

Consider `COc1ccc(-c2ccc(C(=O)N[C@H]3C[C@@H](N=C=S)C3)c(F)c2)cc1F` [Example 29, 3,3′-Difluoro-N-((1s,3s)-3-isothiocyanatocyclobutyl)-4′-methoxy-[1,1′-biphenyl]-4-carboxamide], for which the half-inhibitory concentration (IC50) was 10 to 100 nM.

Regarding `COc1ccc(-c2ccc(S(=O)(=O)N[C@H]3C[C@@H](N=C=S)C3)cc2)cc1F` [Example 30, 3′-Fluoro-N-((1s,3s)-3-isothiocyanatocyclobutyl)-4′-methoxy-[1,1′-biphenyl]-4-sulfonamide], the IC50 lay in the range of 10 to 100 nM.

For the compound `COc1ccc(-c2ccc(S(=O)(=O)O[C@H]3C[C@@H](N=C=S)C3)cc2)cc1F` [Example 31, (1s,3s)-3-Isothiocyanatocyclobutyl 3′-fluoro-4′-methoxy-[1,1′-biphenyl]-4-sulfonate], the half-maximal inhibitory concentration (IC50) is 10 to 100 nM.

As for `O=C(CCCCCc1ccccc1)N[C@H]1C[C@@H](N=C=S)C1` [Example 32, N-(1s,3s)-(3-Isothiocyanatocyclobutyl)-6-phenylhexanamide], the IC50 fell in the range of 10 to 100 nM.

Regarding `COc1ccc(-c2ccc(OC(=O)N[C@H]3C[C@@H](N=C=S)C3)cc2)cc1` [Example 33, 4′-Methoxy-[1,1′-biphenyl]-4-yl ((1s,3s)-3-isothiocyanatocyclobutyl)carbamate], the half-inhibitory concentration (IC50) lay within 10 to 100 nM.

For the compound `COc1ccc(-c2ccc(C(=O)N[C@H]3C[C@@H](N=C=S)C3)nc2)nc1` [Example 34, N-(cis-(3-Isothiocyanatocyclobutyl))-5-methoxy-[2,3′-bipyridine]-6′-carboxamide], the 50% inhibitory concentration (IC50) fell in the range of 10 to 100 nM.

Regarding `COc1ccc(-c2ncc(C(=O)N[C@H]3C[C@@H](N=C=S)C3)o2)cc1` [Example 35, N-((cis)-3-isothiocyanatocyclobutyl)-2-(4-methoxyphenyl)oxazole-5-carboxamide], the IC50 is 110 to 1000 nM.
